Measurements: ChEMBL document CHEMBL1201862, “PubChem BioAssay data set” (2004)
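All cell lines were grown in 96-well plates and treated with compound for 48 hours. At the GI50, growth is halved.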 Active and inactive are the calls of the source. Cut-off read from the data, not from the text of the source: active = GI50 up to about 1.1 µM and inactive = higher.

Columns and labels:
Experiment in all cases: DTP human tumour cell line panel, 48 h
OVCAR-4 = system: OVCAR-4
UACC-62 = system: UACC-62
M14 = system: M14
RXF 393 = system: RXF 393
TK-10 = system: TK-10
SK-MEL-5 = system: SK-MEL-5
MOLT-4 = system: MOLT-4
CCRF-CEM = system: CCRF-CEM
A549 = system: A549
NCI-H522 = system: NCI-H522
NCI-H460 = system: NCI-H460
SF-268 = system: SF-268
786-0 = system: 786-0
EKVX = system: EKVX
SF-539 = system: SF-539
K562 = system: K562
Malme-3M = system: Malme-3M
HCT-116 = system: HCT-116

Measured: GI50

CC1=NN(c2ccccc2)C(=O)/C1=C\c1ccc([N+](=O)[O-])cc1
inactive: OVCAR-4 19.3 µM | UACC-62 21.7 µM | M14 30.8 µM | RXF 393 19.5 µM | TK-10 48.8 µM | SK-MEL-5 22.4 µM | MOLT-4 21.5 µM | CCRF-CEM 20.7 µM | A549 35.4 µM | NCI-H522 21.8 µM | NCI-H460 34 µM | SF-268 38.6 µM | 786-0 29.1 µM | EKVX 36.6 µM | SF-539 22.4 µM | K562 28.6 µM | Malme-3M 23.9 µM

C=C1CCC2(C(C)=O)COC1(C)O2 (configuration not stated)
inactive: UACC-62 > 100 µM | M14 > 100 µM | RXF 393 > 10 µM | TK-10 > 100 µM | SK-MEL-5 > 100 µM | MOLT-4 > 100 µM | CCRF-CEM > 100 µM | A549 > 100 µM | NCI-H522 > 10 µM | HCT-116 > 100 µM | NCI-H460 > 100 µM | 786-0 > 100 µM | EKVX > 100 µM | SF-539 > 100 µM | K562 > 100 µM | Malme-3M > 100 µM

O=C1c2ccccc2C(=O)C12CCc1ccccc12
inactive: OVCAR-4 > 100 µM | UACC-62 > 100 µM | M14 > 100 µM | RXF 393 > 100 µM | TK-10 > 100 µM | MOLT-4 4.18 µM | CCRF-CEM > 100 µM | A549 > 100 µM | NCI-H460 > 100 µM | SF-268 > 100 µM | 786-0 > 100 µM | EKVX > 100 µM | K562 83.4 µM | Malme-3M > 100 µM

NC(=O)CCC(NC(=O)Cc1ccccc1)C(=O)O (configuration not stated)
inactive: OVCAR-4 1390 µM | UACC-62 > 2470 µM | M14 > 2470 µM | RXF 393 531 µM | TK-10 2120 µM | SK-MEL-5 > 2470 µM | MOLT-4 > 2470 µM | CCRF-CEM 2320 µM | A549 > 2470 µM | NCI-H522 841 µM | HCT-116 1090 µM | SF-268 1420 µM | 786-0 > 2470 µM | EKVX > 2470 µM | SF-539 1420 µM | K562 > 2470 µM | Malme-3M 1530 µM

CCOC(=O)NC(=O)c1cn(-c2ccc(CCOC(=O)CCCCCCCCC(=O)OCCc3ccc(-n4cc(C(=O)NC(=O)OCC)c(=O)[nH]c4=O)cc3)cc2)c(=O)[nH]c1=O
inactive: OVCAR-4 > 100 µM | UACC-62 > 100 µM | M14 > 100 µM | RXF 393 > 100 µM | TK-10 42.8 µM | SK-MEL-5 > 100 µM | MOLT-4 > 100 µM | CCRF-CEM > 100 µM | A549 > 100 µM | HCT-116 > 100 µM | NCI-H460 > 100 µM | SF-268 > 100 µM | 786-0 > 100 µM | EKVX > 100 µM | SF-539 > 100 µM | K562 > 100 µM | Malme-3M > 100 µM

O=C(c1nc2ccccc2nc1O)C(O)c1ccccc1 (configuration not stated)
inactive: OVCAR-4 95.3 µM | UACC-62 72.4 µM | M14 > 100 µM | TK-10 > 100 µM | SK-MEL-5 > 100 µM | MOLT-4 64.9 µM | CCRF-CEM 32.7 µM | A549 70.3 µM | NCI-H522 22.2 µM | HCT-116 > 100 µM | NCI-H460 > 100 µM | SF-268 86.7 µM | 786-0 > 100 µM | EKVX 64.6 µM | SF-539 44.1 µM | K562 40.3 µM | Malme-3M > 100 µM

COc1ccc(/C=C2\N=C(SC)N(CN3CCOCC3)C2=O)cc1
inactive: OVCAR-4 18.6 µM | UACC-62 40.2 µM | M14 55 µM | TK-10 56.5 µM | SK-MEL-5 47.3 µM | MOLT-4 36.4 µM | CCRF-CEM 21.2 µM | A549 65.3 µM | NCI-H522 82.8 µM | HCT-116 33.1 µM | SF-268 48 µM | 786-0 70.6 µM | EKVX 55.2 µM | K562 39 µM | Malme-3M 72.6 µM

Cc1ccc(/C=C/C(=O)c2sc(-c3nc(C)c(C(=O)/C=C/c4ccc(C)cc4)s3)nc2C)cc1
inactive: UACC-62 > 100 µM | RXF 393 > 100 µM | TK-10 > 100 µM | SK-MEL-5 > 100 µM | MOLT-4 > 100 µM | CCRF-CEM > 100 µM | A549 > 100 µM | NCI-H522 97.5 µM | NCI-H460 > 100 µM | SF-268 > 100 µM | 786-0 > 100 µM | EKVX > 100 µM | SF-539 > 100 µM | K562 > 100 µM | Malme-3M > 100 µM

COc1c(CC(C)=O)c2ccccc2n1C(C)=O
inactive: OVCAR-4 > 100 µM | UACC-62 > 100 µM | M14 > 100 µM | RXF 393 > 100 µM | MOLT-4 > 100 µM | CCRF-CEM > 100 µM | A549 > 100 µM | HCT-116 > 100 µM | NCI-H460 > 100 µM | 786-0 > 100 µM | EKVX > 100 µM | SF-539 > 100 µM | K562 > 100 µM

C/C(CC(=O)Nc1cccc(Cl)c1C)=N\NC(N)=S
inactive: UACC-62 > 100 µM | M14 > 100 µM | RXF 393 > 100 µM | TK-10 > 100 µM | SK-MEL-5 > 100 µM | MOLT-4 > 100 µM | CCRF-CEM > 100 µM | A549 > 100 µM | NCI-H522 39.6 µM | HCT-116 > 100 µM | NCI-H460 > 100 µM | SF-268 > 100 µM | 786-0 > 100 µM | EKVX > 100 µM | SF-539 > 100 µM | K562 > 100 µM | Malme-3M > 100 µM

CCOC(=O)Cc1csc(N/C=C2/C(=O)Oc3ccccc3C2=O)n1
inactive: OVCAR-4 31.7 µM | UACC-62 13.5 µM | M14 23.8 µM | RXF 393 14.7 µM | TK-10 24.7 µM | SK-MEL-5 17.3 µM | MOLT-4 10.2 µM | CCRF-CEM 26.6 µM | A549 34.2 µM | NCI-H522 13.5 µM | HCT-116 27.6 µM | NCI-H460 45.4 µM | SF-268 24.8 µM | 786-0 26.4 µM | EKVX 35.8 µM | SF-539 16.9 µM | Malme-3M 1.79 µM

O=S(O)CCCCCSSCCCCSSCCCCCS(=O)O
inactive: OVCAR-4 > 100 µM | UACC-62 > 100 µM | M14 > 100 µM | RXF 393 > 100 µM | TK-10 > 100 µM | SK-MEL-5 > 100 µM | MOLT-4 33.8 µM | CCRF-CEM 41.2 µM | A549 > 100 µM | NCI-H522 64.9 µM | NCI-H460 > 100 µM | SF-268 > 100 µM | 786-0 > 100 µM | EKVX > 100 µM | SF-539 > 100 µM | K562 48.1 µM | Malme-3M 27.7 µM
